Results published in patent US20220289732A1, “HETEROCYCLIC WDR5 INHIBITORS AS ANTI-CANCER COMPOUNDS” (NOVARTIS AG, priority 2019, published 2022).
Read-outs that look alike come from different tables or passages of the source.

Legend:
MV4-11 cells = test: MV4-11 6-day cell growth CTG (CellTiter-Glo) assay; type: cell-based; conditions: 6 days, read-out: (c) MLL/WDR5 cell proliferation assay//MLL/WDR5 proliferation MV4:11 Qualified AC50
Method in brief: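 Exponentially growing MV4-11 AML cells (RPMI 1640, 10% FBS) seeded at 300 cells/well with 12-point 1:3 compound dilutions, top final concentration 50 μM. Viability read by CellTiter-Glo luminescence after 6 days at 37° C; % inhibition vs DMSO-only wells fitted to dose-response for IC50.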

[1] = molecular target: wild type MLL1 four-member complex (MLL1-4C) (Homo sapiens, UniProt P61964); test: MLL1 LC-MS assay (SAH production); type: biochemical; conditions: read-out: (b) MLL LCMS Peptide Val.v.1 Qualified AC50
Method in brief: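 MLL1-4C (30 nM final) was preincubated 20 min with compound (3-fold dilutions, 8 or 12 points) and SAM in Tris-HCl pH 8.0 buffer. H3K4me0 peptide (histone H3[1-21]-biotin) was then added, giving final 2.5 μM SAM and 10 μM substrate, and reactions ran 120 min at rt. After TFA/d4-SAH quench, SAH was quantified by LC-MS/MS and IC50 fitted from control-normalised activity.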

WDR5 = WDR5 (Homo sapiens, UniProt P61964); test: WDR5 HTRF binding assay; conditions: read-out: (a) WDR5 HTRF Pep Val v.1[Inhibitor/IC50]Qualified AC50
Method in brief: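 6 nM WDR5 and 20 nM biotin-MLL1 WIN peptide (3762-3773) were incubated with compound (12-point, 3-fold dilutions) in pH 7.5 Hepes/NaCl/DTT buffer for 20 min at rt. Streptavidin-APC plus anti-His-Eu were then added for 1 hr, with HTRF read at 665/615. IC50 was fit from control-normalized activity; the counter assay used 15 nM biotin-PEG-His peptide.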

Structure (SMILES)	AC50 (MV4-11 cells; Homo sapiens, MV4-11, 144 h) [nM]	AC50 [1] [nM]	IC50 (WDR5) [nM]	AC50 (MV4-11 cells) [nM]
CCOc1cc([C@H](C)N2CCc3c(cc(CCN(C)CC)cc3-c3cc(OC)ncc3C)C2=O)ncc1C#N [Example 188, (S)-4-ethoxy-6-(1-(7-(2-(ethyl(methyl)amino)ethyl)-5-(2-methoxy-5-methylpyridin-4-yl)-1-oxo-3,4-dihydroisoquinolin-2(1H)-yl)ethyl)nicotinonitrile]	10 to 1000	10 to 1000	< 10	–
CCOc1cc(CN2CCc3c(cc(CCN(C)CC)cc3-c3cc(C)nnc3C)C2=O)ncc1C#N [Example 189, 6-((5-(3,6-dimethylpyridazin-4-yl)-7-(2-(ethyl(methyl)amino)ethyl)-1-oxo-3,4-dihydroisoquinolin-2(1H)-yl)methyl)-4-ethoxynicotinonitrile]	10 to 1000	10 to 1000	< 10	–
CCOc1cc([C@H](C)N2CCc3c(cc(CCN(C)CC)cc3-c3cn4ccnc4cc3C)C2=O)ncc1C#N [Example 190, (S)-4-ethoxy-6-(1-(7-(2-(ethyl(methyl)amino)ethyl)-5-(7-methylimidazo[1,2-a]pyridin-6-yl)-1-oxo-3,4-dihydroisoquinolin-2(1H)-yl)ethyl)nicotinonitrile]	10 to 1000	10 to 1000	< 10	–
CCOc1cc([C@H](C)N2CCc3c(cc(CCN(C)CC)cc3-c3c(OC)ccnc3C)C2=O)ncc1C#N [Example 191, 4-ethoxy-6-((1S)-1-(7-(2-(ethyl(methyl)amino)ethyl)-5-(4-methoxy-2-methylpyridin-3-yl)-1-oxo-3,4-dihydroisoquinolin-2(1H)-yl)ethyl)nicotinonitrile]	10 to 1000	10 to 1000	< 10	–
CCOc1cc([C@H](C)N2CCc3c(cc(CCN(C)CC)cc3-c3cc(CC#N)cnc3C)C2=O)ncc1C#N [Example 192, (S)-6-(1-(5-(5-(cyanomethyl)-2-methylpyridin-3-yl)-7-(2-(ethyl(methyl)amino)ethyl)-1-oxo-3,4-dihydroisoquinolin-2(1H)-yl)ethyl)-4-ethoxynicotinonitrile]	10 to 1000	10 to 1000	< 10	–
CCOc1cc([C@H](C)N2CCc3c(cc(CCN(C)CC)cc3-c3cn(C)c(=O)cc3CC)C2=O)ncc1C#N [Example 193, (S)-4-ethoxy-6-(1-(7-(2-(ethyl(methyl)amino)ethyl)-5-(4-ethyl-1-methyl-6-oxo-1,6-dihydropyridin-3-yl)-1-oxo-3,4-dihydroisoquinolin-2(1H)-yl)ethyl)nicotinonitrile]	10 to 1000	10 to 1000	< 10	–
CCOc1cc([C@H](C)N2CCc3c(cc(CCN(C)CC)cc3-c3ccn(C)c(=O)c3Cl)C2=O)ncc1C#N [Example 194, (S)-6-(1-(5-(3-chloro-1-methyl-2-oxo-1,2-dihydropyridin-4-yl)-7-(2-(ethyl(methyl)amino)ethyl)-1-oxo-3,4-dihydroisoquinolin-2(1H)-yl)ethyl)-4-ethoxynicotinonitrile]	10 to 1000	10 to 1000	< 10	–
CCOc1cc([C@H](C)N2CCc3c(cc(CCN(C)CC)cc3-c3ccn(C)c(=O)c3C(F)(F)F)C2=O)ncc1C#N [Example 195, (S)-4-ethoxy-6-(1-(7-(2-(ethyl(methyl)amino)ethyl)-5-(1-methyl-2-oxo-3-(trifluoromethyl)-1,2-dihydropyridin-4-yl)-1-oxo-3,4-dihydroisoquinolin-2(1H)-yl)ethyl)nicotinonitrile]	10 to 1000	10 to 1000	10 to 1000	–
CCOc1cc(CN2CCc3c(cc(CCN(C)CC)cc3-c3cn(C)c(=O)cc3C(F)(F)F)C2=O)ncc1C#N [Example 196, 4-ethoxy-6-((7-(2-(ethyl(methyl)amino)ethyl)-5-(1-methyl-6-oxo-4-(trifluoromethyl)-1,6-dihydropyridin-3-yl)-1-oxo-3,4-dihydroisoquinolin-2(1H)-yl)methyl)nicotinonitrile]	10 to 1000	10 to 1000	10 to 1000	–
CCOc1cc(C(C)N2CCc3c(cc(CCN(C)CC)cc3-c3cc(Cl)cnc3C)C2=O)ncc1C#N (stereo not drawn) [Example 197, 6-(1-(5-(5-chloro-2-methylpyridin-3-yl)-7-(2-(ethyl(methyl)amino)ethyl)-1-oxo-3,4-dihydroisoquinolin-2(1H)-yl)ethyl)-4-ethoxynicotinonitrile]	10 to 1000	10 to 1000	10 to 1000	–
CCOc1cc([C@H](C)N2CCc3c(cc(CCN(C)CC)cc3-c3ccc(N)nc3C(F)(F)F)C2=O)ncc1C#N [Example 198, (S)-6-(1-(5-(6-amino-2-(trifluoromethyl)pyridin-3-yl)-7-(2-(ethyl(methyl)amino)ethyl)-1-oxo-3,4-dihydroisoquinolin-2(1H)-yl)ethyl)-4-ethoxynicotinonitrile]	< 10	10 to 1000	10 to 1000	–
CCOc1cc([C@@H](C)N2CCc3c(cc(CCN(C)CC)cc3-c3ccc(N)nc3C(F)(F)F)C2=O)ncc1C#N [Example 199, (R)-6-(1-(5-(6-amino-2-(trifluoromethyl)pyridin-3-yl)-7-(2-(ethyl(methyl)amino)ethyl)-1-oxo-3,4-dihydroisoquinolin-2(1H)-yl)ethyl)-4-ethoxynicotinonitrile]	10 to 1000	10 to 1000	10 to 1000	–
CCOc1cc(C(C)N2CCc3c(cc(CCN(C)CC)cc3-c3ccc(N)nc3C(F)F)C2=O)ncc1C#N (stereo not drawn) [Example 200, 6-(1-(5-(6-amino-2-(difluoromethyl)pyridin-3-yl)-7-(2-(ethyl(methyl)amino)ethyl)-1-oxo-3,4-dihydroisoquinolin-2(1H)-yl)ethyl)-4-ethoxynicotinonitrile]	10 to 1000	10 to 1000	10 to 1000	–
CCOc1cc(CN2CCc3c(cc(CCN(C)CC)cc3-c3cc(N)cnc3C)C2=O)ncc1C#N [Example 201, 6-((5-(5-amino-2-methylpyridin-3-yl)-7-(2-(ethyl(methyl)amino)ethyl)-1-oxo-3,4-dihydroisoquinolin-2(1H)-yl)methyl)-4-ethoxynicotinonitrile]	10 to 1000	10 to 1000	10 to 1000	–
CCOc1cc([C@H](C)N2CCc3c(cc(CCN(C)CC)cc3-c3cc(N)ncc3C(F)(F)F)C2=O)ncc1C#N [Example 202, (S)-6-(1-(5-(2-amino-5-(trifluoromethyl)pyridin-4-yl)-7-(2-(ethyl(methyl)amino)ethyl)-1-oxo-3,4-dihydroisoquinolin-2(1H)-yl)ethyl)-4-ethoxynicotinonitrile]	10 to 1000	10 to 1000	10 to 1000	–
CCOc1cc(C(C)N2CCc3c(cc(CCN(C)CC)cc3-c3cc(Cl)nnc3C)C2=O)ncc1C#N (stereo not drawn) [Example 203, 6-(1-(5-(6-chloro-3-methylpyridazin-4-yI)-7-(2-(ethyl(methyl)amino)ethyl)-1-oxo-3,4-dihydroisoquinolin-2(1H)-yl)ethyl)-4-ethoxynicotinonitrile]	10 to 1000	10 to 1000	10 to 1000	–
CCOc1cc([C@H](C)N2CCc3c(cc(CCN(C)CC)cc3-c3cn(C)c(=O)cc3C(F)(F)F)C2=O)ncc1F [Example 204, (S)-2-(1-(4-ethoxy-5-fluompyridin-2-yl)ethyl)-7-(2-(ethyl(methyl)amino)ethyl)-5-(1-methyl-6-oxo-4-(trifluoromethyl)-1,6-dihydropyridin-3-yl)-3,4-dihydroisoquinolin-1(2H)-one]	–	10 to 1000	10 to 1000	10 to 1000
CCOc1cc(C(C)N2CCc3c(cc(CCN(C)CC)cc3-c3cc(C)nn3C)C2=O)ncc1C#N (stereo not drawn) [Example 205, 6-(1-(5-(1,3-dimethyl-1H-pyrazol-5-yl)-7-(2-(ethyl(methyl)amino)ethyl)-1-oxo-3,4-dihydroisoquinolin-2(1H)-yl)ethyl)-4-ethoxynicotinonitrile]	10 to 1000	10 to 1000	10 to 1000	–
CCOc1cc(C(C)N2CCc3c(cc(CCN(C)CC)cc3-c3cc4[nH]cnc4nc3C)C2=O)ncc1C#N (stereo not drawn) [Example 206, 4-ethoxy-6-(1-(7-(2-(ethyl(methyl)amino)ethyl)-5-(5-methyl-1H-imidazo[4,5-b]pyridin-6-yl)-1-oxo-3,4-dihydroisoquinolin-2(1H)-yl)ethyl)nicotinonitrile]	10 to 1000	10 to 1000	10 to 1000	–
CCOc1cc(C(C)N2CCc3c(cc(CCN(C)CC)cc3N3CCCC3)C2=O)ncc1C#N (stereo not drawn) [Example 207, 4-ethoxy-6-(1-(7-(2-(ethyl(methyl)amino)ethyl)-1-oxo-5-(pyrrolidin-1-yl)-3,4-dihydroisoquinolin-2(1H)-yl)ethyl)nicotinonitrile]	1000 to 25000	10 to 1000	10 to 1000	–
CCOc1cc(C(C)N2CCc3c(cc(CCN(C)CC)cc3-n3ccnc3)C2=O)ncc1C#N (stereo not drawn) [Example 208]	1000 to 25000	10 to 1000	10 to 1000	–
CCOc1cc([C@H](C)N2CCc3c(cc(CCN(C)CC)cc3N3CC[C@H](O)C3)C2=O)ncc1C#N [Example 210]	1000 to 25000	10 to 1000	10 to 1000	–
